From article PMC10468942, “A Fluorescent Probe as a Lead Compound for a Selective α-Synuclein PET Tracer: Development of a Library of 2-Styrylbenzothiazoles and Biological Evaluation of [^18F]PFSB and [^18F]MFSB” (ACS Omega, 2023)
Values joined by “and” are separate entries in the source; they are usually repeats but may differ in a detail not shown here. Identical values can stand only once.

Key:
[1] = tested on: αSYN pathology in human brain slices (MSA, PD, AD, control); assay: In vitro autoradiography on human brain slices; type: binding; details: 10 nM tracer; for AD/frontal cortex SB ratio: AD sample vs frontal cortex control
Method: Post-mortem human brain slices (10 μm thickness) were obtained from the subject cases and were analyzed by the Neurobiobank München (NBM, Munich, Germany), where tissues were collected on the basis of written informed consent according to the guidelines of the ethics committee of the Ludwig Maximilians University of Munich, Germany (# 345-13). The use of brain tissue samples in this study was approved by the ethics committee of the Faculty of Medicine at the University of Tuebingen (Ethics approval number: 813/2018BO2). Table S4 (Supporting Information) summarizes the information of the subjects from which samples were obtained and used in the experiment.
For autoradiography, frozen brain slices were thawed for 1 h before preincubation in bovine serum albumin (BSA) buffer for 25 min at room temperature. To determine total binding (TB), brain slices were incubated with the tracer (10 nM [^18F]PFSB, 10 nM [^18F]MFSB). Incubation of consecutive slices with the corresponding nonradioactive compounds (10 μM PFSB, 10 μM MFSB) was performed to determine nonspecific binding (NSB). The nonradioactive compounds were prepared by dissolving in DMSO to 10 mM, which yielded a DMSO concentration of ≤0.1% in the final solution. Incubation was carried out for 1 hour at room temperature with subsequent washing in cold BSA buffer (3 × 10 min) followed by three dippings in cold deionized water. After drying under an IR lamp, brain slices were exposed to a storage phosphor screen (Molecular Dynamics, Caesarea, Israel) for 18 h, which was then scanned in a phosphor imager (STORM 840, Molecular Dynamics, Sunnyvale, CA).
Quantitative data analysis was performed by drawing four regions of interest (ROIs) in relevant areas of the slice and one ROI next to it for background subtraction (Figures S7 and S8; ImageJ 1.8.0_172, National Institute of Health, Bethesda, MD).[28] Specific binding (SB) is obtained by subtracting NSB from TB. The SB disease/SB control ratio was calculated by dividing by the SB in diseased tissues with the respective SB in control tissues.

αSYN fibrils [2] = target: T1, αSYN fibrils (Homo sapiens, UniProt P37840); assay: [^3H]PiB competition binding assay on αSYN fibrils
T1 construct: cloning of the DNA construct encoding full-length αSYN into the pET-22b vector; made in house; host or cells: Escherichia coli BL21
Method: Following the cloning of the DNA construct encoding full-length αSYN into the pET-22b vector and its transformation into BL21 cells, the expression of human αSYN from a prokaryotic host was induced overnight in Escherichia coli at 20 °C with 0.5 mM IPTG. The cells were harvested by centrifugation, resuspended in 20 mM Tris-HCl pH 7.6, 25 mM NaCl and 1× complete protease inhibitor (Roche, Basel, Switzerland), and lysed by sonication. […] Anion exchange chromatography (HiTrap Q, GE Healthcare, Chicago, Illinois) was used to trap the produced αSYN, which was eluted with NaCl 0.1 M over 20 column volumes. Fractions containing αSYN were concentrated and further purified through a Superdex 75 SEC column equilibrated with PBS. […] A 4 mg/mL solution of αSYN in 20 mM K3PO4 pH 9.1 was placed in an orbital shaker at 37 °C, 1000 rpm for 5 days to prepare P91s. The assemblies were either sonicated with cycles of 20 s on and 10 s off at 50% amplitude (Q800R3, Qsonica) for a total of 10 min or directly aliquoted in volumes of 10 μL each stored at −80 °C until use. […] The final products were aliquoted, frozen on dry ice, and stored at −80 °C until use.
(§1) Concentrations of αSYN and Aβ1-42 fibrils were as described above.
(§2) Plates were incubated on a shaker (MaxQ 6000, Thermo Fisher Scientific, Inc., Marietta, OH) at 50 rpm for 2 h at 37 °C, covered by removable sealing tapes (PerkinElmer, Waltham, MA). Vacuum filtration and read-out were performed as previously reported.[17] […] Data points were fitted using nonlinear regression analysis in GraphPad Prism (GraphPad Software, Inc., Version 8.4.0, La Jolla).

αSYN fibrils [3] = target: T1, αSYN fibrils; assay: [^3H]MODAG-001 competition binding assay on αSYN fibrils; details: for Ki: n = 2, single determinations
Method: Following the cloning of the DNA construct encoding full-length αSYN into the pET-22b vector and its transformation into BL21 cells, the expression of human αSYN from a prokaryotic host was induced overnight in Escherichia coli at 20 °C with 0.5 mM IPTG. The cells were harvested by centrifugation, resuspended in 20 mM Tris-HCl pH 7.6, 25 mM NaCl and 1× complete protease inhibitor (Roche, Basel, Switzerland), and lysed by sonication. Additionally, they were boiled for 15 min and centrifuged at 12 000g for 30 min. Anion exchange chromatography (HiTrap Q, GE Healthcare, Chicago, Illinois) was used to trap the produced αSYN, which was eluted with NaCl 0.1 M over 20 column volumes. Fractions containing αSYN were concentrated and further purified through a Superdex 75 SEC column equilibrated with PBS. Additional purification was conducted via a high-capacity endotoxin removal spin column (Pierce, Waltham, Massachusetts), affording an endotoxin level below 1.0 EU/mg. The monomeric state and monodispersity of pure αSYN were confirmed by dynamic light scattering and fibrillation was performed according to the protocol from Makky et al.[26] A 4 mg/mL solution of αSYN in 20 mM K3PO4 pH 9.1 was placed in an orbital shaker at 37 °C, 1000 rpm for 5 days to prepare P91s. The assemblies were either sonicated with cycles of 20 s on and 10 s off at 50% amplitude (Q800R3, Qsonica) for a total of 10 min or directly aliquoted in volumes of 10 μL each stored at −80 °C until use. The method for Aβ1-42 fibrils generation was adapted from Bagchi et al. and described in Kuebler et al.[17],[27] […]
Plates were incubated on a shaker (MaxQ 6000, Thermo Fisher Scientific, Inc., Marietta, OH) at 50 rpm for 2 h at 37 °C, covered by removable sealing tapes (PerkinElmer, Waltham, MA). Vacuum filtration and read-out were performed as previously reported.[17] […]

Aβ1-42 fibrils = target: T2, Aβ1-42 fibrils (Homo sapiens, UniProt P05067); assay: [^3H]PiB competition binding assay on Aβ fibrils; details: for competition with [^3H]PiB / binding to Aβ fibrils (in words): Aβ1–42 fibrils
T2 construct: Synthetic lyophilized human Aβ1-42 peptide; purchased EMC Microcollections, Tuebingen, Germany; host or cells: synthetic peptide
T2 sequence (P05067 672-713 limits assumed): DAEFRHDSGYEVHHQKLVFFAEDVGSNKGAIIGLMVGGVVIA
Method: Following the cloning of the DNA construct encoding full-length αSYN into the pET-22b vector and its transformation into BL21 cells, the expression of human αSYN from a prokaryotic host was induced overnight in Escherichia coli at 20 °C with 0.5 mM IPTG. The cells were harvested by centrifugation, resuspended in 20 mM Tris-HCl pH 7.6, 25 mM NaCl and 1× complete protease inhibitor (Roche, Basel, Switzerland), and lysed by sonication. […] Anion exchange chromatography (HiTrap Q, GE Healthcare, Chicago, Illinois) was used to trap the produced αSYN, which was eluted with NaCl 0.1 M over 20 column volumes. Fractions containing αSYN were concentrated and further purified through a Superdex 75 SEC column equilibrated with PBS. […] A 4 mg/mL solution of αSYN in 20 mM K3PO4 pH 9.1 was placed in an orbital shaker at 37 °C, 1000 rpm for 5 days to prepare P91s. The assemblies were either sonicated with cycles of 20 s on and 10 s off at 50% amplitude (Q800R3, Qsonica) for a total of 10 min or directly aliquoted in volumes of 10 μL each stored at −80 °C until use. The method for Aβ1-42 fibrils generation was adapted from Bagchi et al. and described in Kuebler et al.[17],[27] […] Aggregation was induced by incubation in an Eppendorf Thermomixer at 37 °C with shaking at 800 rpm for 72 h. The resulting fibrils were sonicated for 3 min in a water bath (Elmasonic S 60 H, Elma Schmidbauer GmbH, Singen, Germany). The final products were aliquoted, frozen on dry ice, and stored at −80 °C until use.
as §1, §2

αSYN fibrils [4] = target: αSYN fibrils; design: method as in PMID 33819025; details: fluorescence titration; cited from earlier work
[5] = In vivo dynamic PET/MR imaging in healthy wild-type mice; design: species or system C57BL/6J mice
Method: The animal experiments were performed in compliance with the European directives on the protection and use of laboratory animals (Council Directive 2010/63/UE) and the German animal welfare act with approval from the local authorities (Regierungspräsidium Tuebingen, R3/19G). Healthy wild-type female C57BL/6J mice (20.3 ± 0.9 g; 9 weeks old) purchased from Charles River Laboratories (Sulzbach, Germany) were maintained in our vivarium on a 12:12 hour light–dark cycle, and were kept at a temperature of 22 °C with 40–60% humidity and free access to a standard diet and tap water.
The mice (n = 3) were anesthetized with 1.5% isoflurane evaporated in 100% oxygen at a flow rate of 0.8 L/min. A body temperature of 37 °C was maintained using a feedback temperature control unit. PET imaging studies were performed on Inveon dedicated microPET system (Inveon D-PET, Siemens, Knoxville, TN). Five seconds after the start of PET acquisition, the mice were injected intravenously with 9.9 ± 0.6 MBq of [^18F]MFSB (Am = 46.2 ± 2.5 GBq/μmol at the time of injection). The 1 h dynamic acquisitions were divided into 39 time frames (12 × 5 s, 6 × 10 s, 6 × 30 s, 5 × 60 s, and 10 × 300 s). A 13-min transmission measurement with a cobalt-57 point source was performed for attenuation correction. Subsequently, an anatomical MR scan with a 7 Tesla MR scanner (ClinScan, Bruker BioSpin MRI GmbH, Ettlingen, Germany) using a rat whole-body volume coil and the Paravision software (v6.0.1, Bruker, Ettlingen, Germany) using a T2-weighted Turbo-RARE MRI sequence.
The PET image was reconstructed via the OSEM3D/SP-MAP reconstruction algorithm and coregistered to the whole-body MRI scan. Volumes of interest (VOIs) were hand-drawn for the relevant organs based on the MR anatomy in PMOD (PMOD Technologies, Faellanden, Switzerland, Version 4.2) and VOIs at different regions in the mouse brain were extracted using the atlas provided by PMOD to calculate the respective time–activity curves (TACs). Standardized uptake values (SUVs) were calculated as a ratio of the detected activity with injected activity and weight (SUV = (TAC (kBq/cc)/inj. activity (kBq)) × weight (g)).

[6] = nonmethylated compounds, Table 1, two values in a cell = single determinations, a: mean Ki ± SEM of three data points, b: single data point, read-out: Ki
[7] = mice n = 3, i.v., 60 min dynamic PET

[18F]c1ccc2nc(/C=C/c3ccc(N4CCCCC4)cc3)sc2c1 [[^18F]PFSB]
AD/frontal cortex SB ratio [1]: 1.06
specific binding signal intensity ratio MSA / control of the same brain area ([1]; MSA patient slices vs control, n = 1): 3.7 and 4.2

Fc1ccc2nc(C=Cc3ccc(N4CCCCC4)cc3)sc2c1 [9a, 6-Fluoro-2-(4-(piperidin-1-yl)styryl)benzo[d]thiazole]
Ki (αSYN fibrils [2]; [6]): 25.4 ± 2.3 nM
Ki (αSYN fibrils [3]): 125 nM and 159 nM
competition with [^3H]PiB / binding to Aβ fibrils (in words) (Aβ1-42 fibrils): None of the tested compounds appreciably competed against [^3H]PiB

CN1CCN(c2ccc(C=Cc3sc4ccccc4[n+]3C)cc2)CC1 [RB2, 3-Methyl-2-(4-(4-methylpiperazin-1-yl)styryl)benzo[d]thiazol-3-ium Iodide, reference compound]
Kd (αSYN fibrils [4]): 4400 ± 500 nM
Ki (αSYN fibrils [2]; Ki-RB2, αSYN [^3H]PiB competition): 333000 nM
Ki (αSYN fibrils [2]; methylated compounds, Table 2, two values in a cell = single determinations, read-out: Ki): > 400 nM

[18F]c1ccc2nc(/C=C/c3ccc(N4CCOCC4)cc3)sc2c1 [[^18F]MFSB]
AD/frontal cortex SB ratio [1]: remained favorable
SUV, TAC peak value, blood [5, 7]: 6.94 ± 0.71
SUV, TAC peak value, brain [5, 7]: 1.79 ± 0.02
SUV, TAC peak value, kidney [5, 7]: 2.70 ± 0.27
SUV, TAC peak value, liver [5, 7]: 5.00 ± 0.35
SUV, TAC peak value, lung [5, 7]: 4.43 ± 0.33
SUV, TAC peak value, bone ([5]; mice n = 3, i.v., at 60 min): 1.52 ± 0.20
SUV peak in the cerebellum ([5]; mice, PET): up to 1.76
SUV peak in the frontal cortex ([5]; mice, PET): up to 1.58
SUVbrain/SUVblood ([5]; mice, PET): 2.7
Time to peak, bone ([5]; mice, PET TAC): 60 min
Time to peak, brain ([5]; mice, PET TAC): 25 min
Time to peak, kidney ([5]; mice, PET TAC): 110 s
Time to peak, liver ([5]; mice, PET TAC): 90 s
Time to peak, lung ([5]; mice, PET TAC): 15 s
AUC, brain ([5]; mice, PET TAC over 60 min): 98.13 ± 1.30
AUC, kidney ([5]; mice, PET TAC over 60 min): 102.27 ± 1.33
AUC, liver ([5]; mice, PET TAC over 60 min): 188.40 ± 6.15
AUC, lung ([5]; mice, PET TAC over 60 min): 51.22 ± 3.94

C(=Cc1nc2ccccc2s1)c1ccc(N2CCOCC2)cc1 [15a, 4-(4-(2-(Benzo[d]thiazol-2-yl)vinyl)phenyl)morpholine]
Ki (αSYN fibrils [2]; [6]): 92 ± 30.3 nM
competition with [^3H]PiB / binding to Aβ fibrils (in words) (Aβ1-42 fibrils): None of the tested compounds appreciably competed against [^3H]PiB

Fc1ccc2nc(C=Cc3ccc(N4CCOCC4)cc3)sc2c1 [compound 45, 4-(4-(2-(6-Fluorobenzo[d]thiazol-2-yl)vinyl)phenyl)morpholine]
Ki (αSYN fibrils [2]; Ki, αSYN [^3H]PiB competition, mean Ki ± SEM, n = 3, or single determinations): 10.3 ± 4.7 nM
factor of affinity improvement compared to PFSB (αSYN fibrils [2]; [^3H]PiB competition, Ki-MFSB vs Ki-PFSB): 2.5
fold lower Ki than PFSB (αSYN fibrils [3]; [^3H]MODAG-001 competition): 4.6 fold
Ki (αSYN fibrils [3]): 20.3 nM and 41.2 nM
αSYN/Aβ selectivity (in words) (Aβ1-42 fibrils; [^3H]PiB competition on αSYN and Aβ fibrils): remained unchanged

C(=Cc1nc2ccccc2s1)c1ccc(N2CCCC2)cc1 [17a, 2-(4-(Pyrrolidin-1-yl)styryl)benzo[d]thiazole]
Ki (αSYN fibrils [2]; [6]): 73.4 ± 19 nM
competition with [^3H]PiB / binding to Aβ fibrils (in words) (Aβ1-42 fibrils): None of the tested compounds appreciably competed against [^3H]PiB
